Assay results reported in patent US10206907B2, “Compounds useful for the treatment of degenerative and inflammatory diseases” (GALAPAGOS NV, priority 2008, dated 2019).

Columns and labels:
[1] = biological target: Recombinant human JAK3 catalytic domain (Homo sapiens (Human), UniProt P52333); assay: JAK3 inhibition assay; type: biochemical; conditions: semi-quantitative score
Description: Plates were washed 6 times with 300 μL per well of a 75 mM phosphoric acid solution and the bottom of the plates was sealed. 40 μL/well of Microscint-20 was added, the top of the plates was sealed and readout was performed using the Topcount (Perkin Elmer). Kinase activity was calculated by subtracting counts per minute (cpm) obtained in the presence of a positive control inhibitor (10 μM staurosporine) from cpm obtained in the presence of vehicle. The ability of a test compound to inhibit this activity was determined as: Percentage inhibition=((cpm determined for sample with test compound present−cpm determined for sample with positive control inhibitor) divided by (cpm determined in the presence of vehicle−cpm determined for sample with positive control inhibitor))*100%.
Dose dilution series were prepared for the compounds enabling the testing of dose-response effects in the JAK3 assay and the calculation of the IC50 for each compound.

[2] = Microsomal stability, rat liver microsomes; type: in vitro ADME; conditions: percentage of compound remaining after 60 minutes, 3 μM compound
Outline: (§1)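 Percent parent remaining after 60 min was determined by LCMS against a time-zero sample quenched before microsome addition. Incubations ran at 37°C with liver microsomes and a G6PDH-based NADPH-regenerating cofactor mix. Quench was MeOH or ACN (1:1).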

[3] = Caco2 permeability (bi-directional); type: in vitro ADME, human; conditions: human, pH 7.4; for efflux ratio at 1 h, 10 µM: Caco-2, ratio of PappB>A/PappA>B; for Papp A→B at 1 h, 10 µM: Caco-2, apical to basolateral, read-out: Papp (A2B)
Description: Bi-directional Caco-2 assays were performed as described below.
2×10^5 cells/well were seeded in plating medium consisting of DMEM+GlutaMAXI+1% NEAA+10% FBS (FetalClone II)+1% Pen/Strep. The medium was changed every 2-3 days.
50 μM Lucifer Yellow (Sigma) was added to the donor buffer in all wells to assess integrity of the cell layers by monitoring Lucifer Yellow permeation. As Lucifer Yellow (LY) cannot freely permeate lipophilic barriers, a high degree of LY transport indicates poor integrity of the cell layer.
After a 1 hour incubation at 37° C. while shaking at an orbital shaker at 150 rpm, 70 μL aliquots were taken from both apical (A) and basal (B) chambers and added to 100 μL1 50:50 acetonitrile:water solution containing analytical internal standard (0.5 μM carbamazepine) in a 96 well plate.
Concentrations of compound in the samples were measured by high performance liquid-chromatography/mass spectroscopy (LC-MS/MS).
The Efflux ratios, as an indication of active efflux from the apical cell surface, were calculated using the ratio of PappB>A/PappA>B.
The following assay acceptance criteria were used:
Lucifer yellow permeability: ≤100 nm/s

MMP13 in SW1353 cells = assay: OSM/IL-1β signaling assay (MMP13 levels in SW1353 cells); type: cell-based; conditions: Homo sapiens; SW1353 cells, OSM and IL-1β triggered, MMP13 levels 48 hours after triggering; read-out: MMP13 EC50;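 also: secreted MMP13 captured by antibody, activated with APMA and its activity read by fluorescence, inhibition scaled between vehicle-treated triggered wells (0%) and untriggered wells (100%)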
[4] = Microsomal stability, human liver microsomes; type: in vitro ADME; conditions: percentage of compound remaining after 60 minutes, 3 μM compound
Outline: as §1

[5] = biological target: Recombinant human JAK1 catalytic domain (Homo sapiens (Human), UniProt P23458); assay: JAK1 inhibition assay; type: biochemical; conditions: semi-quantitative score
Outline: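 IC50 values come from dose-response series, with each point expressed as percent inhibition of cpm. Vehicle sets full activity and 10 μM staurosporine sets background. Incorporated radioactivity counted by scintillation after washing with 75 mM phosphoric acid.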

[6] = biological target: Recombinant human JAK2 catalytic domain (Homo sapiens (Human), UniProt O60674); assay: JAK2 inhibition assay; type: biochemical; conditions: semi-quantitative score
Outline: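 Activity was taken as vehicle cpm minus cpm with 10 μM staurosporine, and inhibition was expressed on that scale. Incubation was 90 min at 30 °C, followed by acid quench, phosphoric acid washes and Microscint counting. Compounds were tested as dose series to obtain IC50.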

[7] = test system: JAK-STAT signalling in HeLa cells; assay: JAK-STAT signalling assay (OSM-triggered pSTAT1(2)-luciferase reporter in HeLa cells); type: cell-based; conditions: Homo sapiens; HeLa cells, OSM-triggered pSTAT1(2)-luciferase reporter; read-out: STAT signalling EC50
Outline: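 Read-out is oncostatin M–driven pSTAT1(2)-luciferase activity, corrected by co-transfected LacZ β-galactosidase, in transiently transfected HeLa cells cultured overnight at 37 °C, 10% CO2. Inhibition percentages against positive and negative controls were plotted across doses to derive EC50.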

Recombinant human JAK2 catalytic domain, sequence (O60674 808-1132): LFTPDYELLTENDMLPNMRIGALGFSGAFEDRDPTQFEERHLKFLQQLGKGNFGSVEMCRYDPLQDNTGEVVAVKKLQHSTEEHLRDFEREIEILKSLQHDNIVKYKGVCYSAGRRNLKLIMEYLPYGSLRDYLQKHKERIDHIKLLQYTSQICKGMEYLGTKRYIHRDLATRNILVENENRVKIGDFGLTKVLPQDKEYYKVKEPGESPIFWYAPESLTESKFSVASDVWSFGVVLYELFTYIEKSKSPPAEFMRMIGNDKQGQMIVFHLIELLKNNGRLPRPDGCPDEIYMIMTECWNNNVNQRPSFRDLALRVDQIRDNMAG
Recombinant human JAK3 catalytic domain, sequence (P52333 781-1124): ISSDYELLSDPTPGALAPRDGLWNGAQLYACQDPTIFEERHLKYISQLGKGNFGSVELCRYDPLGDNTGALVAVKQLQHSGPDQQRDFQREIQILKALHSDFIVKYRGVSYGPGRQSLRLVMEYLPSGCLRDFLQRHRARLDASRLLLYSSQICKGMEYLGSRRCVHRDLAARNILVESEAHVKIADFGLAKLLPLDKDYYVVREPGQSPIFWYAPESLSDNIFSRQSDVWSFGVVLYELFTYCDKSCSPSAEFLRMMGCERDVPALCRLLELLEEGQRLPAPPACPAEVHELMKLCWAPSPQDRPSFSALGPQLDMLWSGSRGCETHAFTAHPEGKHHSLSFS
Recombinant human JAK1 catalytic domain, sequence (P23458 850-1154): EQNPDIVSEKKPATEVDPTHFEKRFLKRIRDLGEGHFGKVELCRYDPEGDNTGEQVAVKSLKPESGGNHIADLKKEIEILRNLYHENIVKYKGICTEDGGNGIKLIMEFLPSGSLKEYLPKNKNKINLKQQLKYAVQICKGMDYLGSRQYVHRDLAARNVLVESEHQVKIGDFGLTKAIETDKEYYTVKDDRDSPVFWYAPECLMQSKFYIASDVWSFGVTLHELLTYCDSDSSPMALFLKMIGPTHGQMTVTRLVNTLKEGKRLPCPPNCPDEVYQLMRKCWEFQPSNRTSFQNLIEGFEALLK

| Compound | IC50 [1] [nM] | Microsomal Stability Rat (%) [2] | efflux ratio at 1 h, 10 µM [3] | EC50 (MMP13 in SW1353 cells) [nM] | Microsomal Stability Human (%) [4] | IC50 [5] [nM] | IC50 [6] [nM] | EC50 [7] [nM] | Papp A→B at 1 h, 10 µM [3] [×10⁻⁶ cm/s] |
| --- | --- | --- | --- | --- | --- | --- | --- | --- | --- |
| O=C(Nc1nc2cccc(-c3ccc(C(=O)N4CCCN(Cc5ccccc5)CC4)cc3)n2n1)C1CC1 [Compound 75, N-(5-(4-(4-benzyl-1,4-diazepane-1-carbonyl)phenyl)-[1,2,4]triazolo[1,5-a]pyridin-2-yl)cyclopropanecarboxamide] | > 1000 | * (* 0-25) | 2.5 | 501 to 1000 | * (* 0-25) | < 100 | 101 to 500 | > 1000 | 18.2 |
| CN(CCc1ccccc1)C(=O)c1ccc(-c2cccc3nc(NC(=O)C4CC4)nn23)cc1 [Compound 96, 4-(2-(cyclopropanecarboxamido)-[1,2,4]triazolo[1,5-a]pyridin-5-yl)-N-methyl-N-phenethylbenzamide] | > 1000 | * (* 0-25) | 1 | > 1000 | * (* 0-25) | < 100 | < 100 | > 1000 | 34.6 |
| O=C(Nc1nc2cccc(-c3cnn(Cc4ccccc4)c3)n2n1)C1CC1 [Compound 107, N-(5-(1-benzyl-1H-pyrazol-4-yl)-[1,2,4]triazolo[1,5-a]pyridin-2-yl)cyclopropanecarboxamide] | > 1000 | * (* 0-25) | 1.05 | > 1000 | * (* 0-25) | < 100 | < 100 | > 1000 | 24.1 |
| O=C(NCCOc1ccccc1)c1ccc(-c2cccc3nc(NC(=O)C4CC4)nn23)c(F)c1 [Compound 100, 4-(2-(cyclopropanecarboxamido)-[1,2,4]triazolo[1,5-a]pyridin-5-yl)-3-fluoro-N-(2-phenoxyethyl)benzamide] | > 1000 | * (* 0-25) | 3.23 | > 1000 | * (* 0-25) | < 100 | < 100 | > 1000 | 11.8 |
| O=C(CCOc1ccccc1)Nc1ccc(-c2cccc3nc(NC(=O)C4CC4)nn23)cc1 [Compound 108] | > 1000 | * (* 0-25) | 1.4 | 501 to 1000 | * (* 0-25) | < 100 | < 100 | 501 to 1000 | 27.7 |
| O=C(NCc1cccc(F)c1)c1ccc(-c2cccc3nc(NC(=O)C4CC4)nn23)cc1 [Compound 29, 4-(2-(cyclopropanecarboxamido)-[1,2,4]triazolo[1,5-a]pyridin-5-yl)-N-(3-fluorobenzyl)benzamide] | > 1000 | ** (** 26-50) | 5.2 | > 1000 | *** (*** 51-75) | < 100 | 101 to 500 | 101 to 500 | 7.78 |
| O=C(Nc1nc2cccc(-c3ccc(CN4CCC(C(F)(F)F)CC4)cc3)n2n1)C1CC1 [Compound 240, Cyclopropanecarboxylic acid {5-[4-(4-trifluoromethyl-piperidin-1-ylmethyl)-phenyl]-[1,2,4]triazolo[1,5-a]pyridin-2-yl}-amide] | 501 to 1000 | *** (*** 51-75) | 1.3 | > 1000 | ** (** 26-50) | < 100 | < 100 | 101 to 500 | 29.6 |

More lines, now with the values ahead:

| IC50 [1] [nM] | Microsomal Stability Rat (%) [2] | efflux ratio at 1 h, 10 µM [3] | EC50 (MMP13 in SW1353 cells) [nM] | Microsomal Stability Human (%) [4] | IC50 [5] [nM] | IC50 [6] [nM] | EC50 [7] [nM] | Papp A→B at 1 h, 10 µM [3] [×10⁻⁶ cm/s] | Compound |
| --- | --- | --- | --- | --- | --- | --- | --- | --- | --- |
| 101 to 500 | **** (**** 76-100) | 1.5 | 501 to 1000 | **** (**** 76-100) | < 100 | < 100 | > 1000 |  | O=C(Nc1nc2cccc(-c3ccc(OCc4ccc(C(F)(F)F)nc4)cc3)n2n1)C1CC1 [Compound 78, N-(5-(4-((6-(trifluoromethyl)pyridin-3-yl)methoxy)phenyl)-[1,2,4]triazolo[1,5-a]pyridin-2-yl)cyclopropanecarboxamide] |
| 101 to 500 | ** (** 26-50) | 0.9 | 1 to 500 | ** (** 26-50) | < 100 | < 100 | 501 to 1000 | 36.5 | O=C(Nc1nc2cccc(-c3ccc(CN4CCC(F)(F)CC4)cc3)n2n1)C1CC1 [Compound 234, Cyclopropanecarboxylic acid {5-[4-(4,4-difluoro-piperidin-1-ylmethyl)-phenyl]-[1,2,4]triazolo[1,5-a]pyridin-2-yl}-amide] |
| 101 to 500 | ** (** 26-50) | 2.61 | 501 to 1000 | * (* 0-25) | < 100 | < 100 | 101 to 500 | 23.8 | O=C(NCCc1ccc(C(F)(F)F)cc1)c1ccc(-c2cccc3nc(NC(=O)C4CC4)nn23)cc1 [Compound 97, 4-(2-(cyclopropanecarboxamido)-[1,2,4]triazolo[1,5-a]pyridin-5-yl)-N-(4-(trifluoromethyl)phenethyl) benzamide] |
| 101 to 500 | * (* 0-25) | 0.81 | 1 to 500 | ** (** 26-50) | < 100 | < 100 | 101 to 500 | 38.9 | O=C(Nc1nc2cccc(-c3ccc(OCc4ncon4)cc3)n2n1)C1CC1 [Compound 99, N-(5-(4-((1,2,4-oxadiazol-3-yl)methoxy)phenyl)-[1,2,4]triazolo[1,5-a]pyridin-2-yl)cyclopropanecarboxamide] |
| 101 to 500 | * (* 0-25) | 1.81 | 501 to 1000 | * (* 0-25) | < 100 | < 100 | 101 to 500 | 20.9 | O=C(NCCc1ccccc1)c1ccc(-c2cccc3nc(NC(=O)C4CC4)nn23)cc1 [Compound 87, 4-(2-(cyclopropanecarboxamido)-[1,2,4]triazolo[1,5-a]pyridin-5-yl)-N-phenethylbenzamide] |
| 501 to 1000 | * (* 0-25) | 1.31 | 501 to 1000 | * (* 0-25) | < 100 | < 100 | > 1000 |  | O=C(Nc1nc2cccc(-c3ccc(NCc4ccccc4)cc3)n2n1)C1CC1 [Compound 72, N-(5-(4-(benzylamino)phenyl)-[1,2,4]triazolo[1,5-a]pyridin-2-yl)cyclopropanecarboxamide] |
| 101 to 500 | * (* 0-25) |  | > 1000 | * (* 0-25) | < 100 |  | 501 to 1000 | 11.2 | O=C(Nc1nc2cccc(-c3ccc(CC(=O)N4CCC(C(F)(F)F)CC4)cc3)n2n1)C1CC1 [Compound 319, Cyclopropanecarboxylic acid (5-{4-[2-oxo-2-(4-trifluoromethyl-piperidin-1-yl)-ethyl]-phenyl}-[1,2,4]triazolo[1,5-a]pyridin-2 yl)-amide] |
